The target of the test is T1, canine TRPM8 (Canis lupus familiaris, UniProt Q1A7N1).
T1 construct: expressed in transfected cells
In words: In Vitro Canine TRPM8 Functional Assay (intracellular Ca2+ fluorescence, icilin activation, HEK293 cells). The test is classed as cell-based. The settings on record: for IC50: HEK293 cells expressing canine TRPM8, icilin activation, individually measured values (batches/salt forms), read-out: IC50 (nM), in vitro TRP M8 Activity. As to the method: The changes in fluorescent signal were monitored by a fluorescence plate reader, either a FLIPR™ (Molecular Devices) or FDSS (Hamamatsu). […] Cells were maintained in 5% CO2 at 37° C. At 24 hr prior to assay, cells were seeded in black wall, clear-base poly-D-lysine coated 384-well plates (BD Biosciences, NJ, USA) at a density of 5,000 cells per well in culture medium and grown overnight in 5% CO2 at 37° C. On assay day, growth media was removed, and cells were loaded with Calcium 3 Dye (Molecular Devices) for 35 min at 37° C., under 5% CO2 and then incubated for 25 min at room temperature and atmosphere. Subsequently, cells were tested for agonist-induced increases in intracellular Ca^2+ levels using FLIPR™ or FDSS. […] Maximal fluorescence intensity (FI) achieved upon addition of icilin was exported from the FLIPR™ or FDSS software and further analyzed using GraphPad Prism 3.02 (Graph Pad Software Inc., CA, U.S.A.). Basal FI was subtracted prior to normalizing data to percent of maximal response. Curves were generated using the average of quadruplicate wells for each data point using nonlinear regression of either sigmoidal dose response or sigmoidal dose response (variable slope). Finally, IC50 values were calculated with the best-fit curve determined by GraphPad Prism

The mark [1] stands for this setting: HEK293, 0.2 μM test compound, individually measured values, read-out: % Inh (%) @0.2 μM, in vitro TRP M8 Activity.
The mark [2] stands for this setting: HEK293, read-out: % Inh (%) @0.2 μM, in vitro TRP M8 Activity, 0.2 μM test compound, individually measured values.

Values joined by “and” are separate entries in the source; they are usually repeats but may differ in a detail not shown here. Equal values may be shown once. Where a name gives a salt, the structure may show the parent alone. Read-outs that look alike come from different tables or passages of the source.

T1 sequence (Q1A7N1 1-1104): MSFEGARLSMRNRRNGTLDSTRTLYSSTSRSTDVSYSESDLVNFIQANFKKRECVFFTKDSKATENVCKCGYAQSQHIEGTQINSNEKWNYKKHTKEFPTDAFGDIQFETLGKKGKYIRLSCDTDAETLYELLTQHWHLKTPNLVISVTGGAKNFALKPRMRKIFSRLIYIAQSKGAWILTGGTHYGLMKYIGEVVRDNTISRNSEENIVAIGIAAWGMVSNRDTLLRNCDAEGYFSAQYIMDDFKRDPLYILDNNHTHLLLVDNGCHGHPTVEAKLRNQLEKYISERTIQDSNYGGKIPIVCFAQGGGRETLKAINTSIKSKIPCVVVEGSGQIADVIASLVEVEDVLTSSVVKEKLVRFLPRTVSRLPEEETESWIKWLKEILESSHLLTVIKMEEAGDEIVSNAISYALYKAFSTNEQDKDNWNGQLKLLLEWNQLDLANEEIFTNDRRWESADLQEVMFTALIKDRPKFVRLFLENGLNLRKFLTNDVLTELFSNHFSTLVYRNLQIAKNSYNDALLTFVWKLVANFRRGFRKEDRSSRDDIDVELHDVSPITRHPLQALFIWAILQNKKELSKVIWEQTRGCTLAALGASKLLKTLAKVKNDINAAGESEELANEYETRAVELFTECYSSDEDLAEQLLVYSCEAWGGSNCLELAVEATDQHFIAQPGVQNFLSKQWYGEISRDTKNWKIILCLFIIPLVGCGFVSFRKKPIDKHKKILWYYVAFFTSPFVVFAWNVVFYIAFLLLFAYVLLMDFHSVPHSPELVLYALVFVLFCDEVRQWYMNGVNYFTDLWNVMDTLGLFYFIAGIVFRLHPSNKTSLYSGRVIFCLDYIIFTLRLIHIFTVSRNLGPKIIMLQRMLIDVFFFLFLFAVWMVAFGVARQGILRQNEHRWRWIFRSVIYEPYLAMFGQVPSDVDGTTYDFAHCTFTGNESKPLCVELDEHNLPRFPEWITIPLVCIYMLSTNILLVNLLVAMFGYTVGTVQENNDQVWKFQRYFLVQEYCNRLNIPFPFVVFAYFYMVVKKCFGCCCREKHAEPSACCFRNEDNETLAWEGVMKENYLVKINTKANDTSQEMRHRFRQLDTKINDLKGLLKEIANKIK

By IC50 is commonly meant the concentration that gives 50% inhibition. With `COc1ccccc1-c1ccc2[nH]c(-c3cc(C(C)C)no3)nc2c1` [Compound 2, 2-(3-Isopropylisoxazol-5-yl)-5-(2-methoxyphenyl)-1H-benzimidazole sodium salt], the IC50 is 16 nM.

With `Cc1oc(C(C)(C)C)nc1-c1nc2cc(-c3ccccc3F)cc(C(F)(F)F)c2[nH]1` [Compound 154, 2-(2-tert-Butyl-5-methyl-oxazol-4-yl)-5-(2-fluoro-phenyl)-7-trifluoromethyl-1H-benzimidazole hydrochloride], the inhibition at 0.2 µM under setting [1] stood at 57%.

Take `Cn1nc(C(C)(C)C)cc1-c1nc2cc(-c3ccccc3F)ccc2[nH]1` [Compound 57, 2-(5-tert-Butyl-2-methyl-2H-pyrazol-3-yl)-5-(2-fluoro-phenyl)-1H-benzimidazole trifluoroacetic acid salt]: the IC50 is 14.6 nM and 20.7 nM.

Regarding `CC(C)(C)Cc1cc(-c2nc3ccc(-c4ccccc4OC(F)(F)F)cc3[nH]2)on1` [Compound 21, 2-[3-(2,2-Dimethylpropyl)-isoxazol-5-yl]-6-(2-trifluoromethoxyphenyl)-1H-benzimidazole hydrochloride], the IC50 amounted to 29 nM.

Take `CC(C)(C)c1ncc(-c2nc3cc(-c4ccccc4C(F)(F)F)ccc3[nH]2)s1` [Compound 100, 2-(2-tert-Butyl-thiazol-5-yl)-5-(2-trifluoromethyl-phenyl)-1H-benzimidazole hydrochloride]: the IC50 amounted to 33.7 nM. The inhibition at 0.2 µM under setting [1] was determined as 91%.

With `Cn1nc(C(C)(C)C)c(C#N)c1-c1nc2cc(-c3ccccc3OC(F)(F)F)cc(C(F)(F)F)c2[nH]1.[Na]` [Compound 150, 3-tert-Butyl-1-methyl-5-[5-(2-trifluoromethoxy-phenyl)-7-trifluoromethyl-1H-benzimidazol-2-yl]-1H-pyrazole-4-carbonitrile sodium salt], the IC50 is 5.7 nM and 7.2 nM and 8.3 nM. Also, the “% Inh (%) @0.2 μM, in vitro TRP M8 Activity” value (0.2 μM test compound, individually measured values) is recorded as 100, 100%. Moreover, the inhibition at 0.2 µM under setting [2] was 100%.

Turning to `Cc1oc(-c2nc3cc(-c4ccccc4C(F)(F)F)cc(C(F)(F)F)c3[nH]2)nc1C(C)(C)C` [Compound 194, 2-(4-tert-Butyl-5-methyl-oxazol-2-yl)-7-trifluoromethyl-5-(2-trifluoromethyl-phenyl)-1H-benzimidazole hydrochloride], the inhibition at 0.2 µM under setting [1] was 63%.

For `Cc1nc(C(C)(C)C)oc1-c1nc2cc(-c3ccccc3Cl)cc(C(F)(F)F)c2[nH]1` [Compound 179, 2-(2-tert-Butyl-4-methyl-oxazol-5-yl)-5-(2-chloro-phenyl)-7-trifluoromethyl-1H-benzimidazole hydrochloride], the inhibition at 0.2 µM under setting [1] was 18%.

As to `COc1ccc(F)cc1-c1ccc2[nH]c(-c3cc(C(C)(C)C)no3)nc2c1` [Compound 105, 2-(3-tert-Butyl-isoxazol-5-yl)-5-(5-fluoro-2-methoxy-phenyl)-1H-benzimidazole hydrochloride], the IC50 came to 16.4 nM.

On to `Cn1nc(C2CCC2)cc1-c1nc2cc(-c3ccccc3Cl)ccc2[nH]1` [Compound 39, 2-(5-Cyclobutyl-2-methyl-2H-pyrazol-3-yl)-5-(2-chlorophenyl)-1H-benzimidazole sodium salt], for which the IC50 turned out to be 20 nM.

Regarding `Cc1c(C(C)(C)C)noc1-c1nc2cc(-c3ccccc3Cl)ccc2[nH]1` [Compound 107, 2-(3-tert-Butyl-4-methyl-isoxazol-5-yl)-5-(2-chloro-phenyl)-1H-benzimidazole hydrochloride], the IC50 is 11.9 nM.

Take `Cc1oc(C(C)(C)C)nc1-c1nc2cc(-c3ccccc3F)cc(Cl)c2[nH]1` [Compound 161, 2-(2-tert-Butyl-5-methyl-oxazol-4-yl)-7-chloro-5-(2-fluoro-phenyl)-1H-benzimidazole hydrochloride]: the inhibition at 0.2 µM under setting [1] was found to be 36%.

On to `CC(C)(C)c1cc(-c2nc3cc(-c4c(F)cccc4C(F)(F)F)ccc3[nH]2)on1` [Compound 82, 2-(3-tert-Butyl-isoxazol-5-yl)-5-(2-fluoro-6-trifluoromethyl-phenyl)-1H-benzimidazole hydrochloride], for which the concentration for half-maximal inhibition (IC50) was 11.6 nM and 1.8 nM.

Turning to `Cc1nc(C(C)(C)C)oc1-c1nc2cc(-c3ccccc3OC(F)(F)F)cc(Cl)c2[nH]1` [Compound 183, 2-(2-tert-Butyl-4-methyl-oxazol-5-yl)-7-chloro-5-(2-trifluoromethoxy-phenyl)-1H-benzimidazole hydrochloride], the inhibition at 0.2 µM under setting [1] was found to be 4%.

With `Cn1nc(C(C)(C)C)c(C(F)(F)F)c1-c1nc2cc(-c3ccccc3OC(F)(F)F)cc(C(F)(F)F)c2[nH]1` [Compound 188, 2-(5-tert-Butyl-2-methyl-4-trifluoromethyl-2H-pyrazol-3-yl)-5-(2-trifluoromethoxy-phenyl)-7-trifluoromethyl-1H-benzimidazole sodium salt], the IC50 was 35 nM. For the same compound, the inhibition at 0.2 µM under setting [1] was found to be 99%.

As to `CC(C)(C)c1cc(-c2nc3cc(-c4ccccc4F)cc(C(F)(F)F)c3[nH]2)on1` [Compound 139, 2-(3-tert-Butyl-isoxazol-5-yl)-5-(2-fluoro-phenyl)-7-trifluoromethyl-1H-benzimidazole sodium salt], the IC50 was 5.6 nM and 12 nM. Besides, the inhibition at 0.2 µM under setting [2] came out at 99%.

Take `COc1cccc(OC)c1-c1ccc2[nH]c(-c3cc(C(C)(C)C)no3)nc2c1` [Compound 63, 2-(3-tert-Butyl-isoxazol-5-yl)-5-(2,6-dimethoxy-phenyl)-1H-benzimidazole trifluoroacetic acid salt]: the IC50 is 5.5 nM.

`Cn1nc(C(C)(C)C)c(C#N)c1-c1nc2cc(-c3ccccc3F)cc(Cl)c2[nH]1` [Compound 167, 3-tert-Butyl-5-[7-chloro-5-(2-fluoro-phenyl)-1H-benzimidazol-2-yl]-1-methyl-1H-pyrazole-4-carbonitrile sodium salt]: the IC50 is 9.8 nM. Moreover, the inhibition at 0.2 µM under setting [1] turned out to be 100%.

As to `Cn1nc(C(C)(C)C)c(C#N)c1-c1nc2cc(-c3c(F)cccc3F)cc(Cl)c2[nH]1` [Compound 171, 3-tert-Butyl-5-[7-chloro-5-(2,6-difluoro-phenyl)-1H-benzimidazol-2-yl]-1-methyl-1H-pyrazole-4-carbonitrile sodium salt], the IC50 was 8.2 nM. Also, the inhibition at 0.2 µM under setting [1] amounted to 100%.

`CC(C)Cc1cc(-c2nc3ccc(-c4ccccc4OC(F)(F)F)cc3[nH]2)on1` [Compound 23, 2-(3-Isobutylisoxazol-5-yl)-6-(2-trifluoromethoxyphenyl)-1H-benzimidazole hydrochloride]: the IC50 stood at 30 nM.

For `Cn1nc(-c2nc3cc(-c4ccccc4C(F)(F)F)ccc3[nH]2)cc1C1CCC1` [Compound 91, 2-(5-Cyclobutyl-1-methyl-1H-pyrazol-3-yl)-5-(2-trifluoromethyl-phenyl)-1H-benzimidazole], the inhibition at 0.2 µM under setting [1] amounted to 7%.

Turning to `Cn1nc(C(C)(C)C)c(Cl)c1-c1nc2cc(-c3c(F)cccc3OC(F)(F)F)ccc2[nH]1` [Compound 88, 2-(5-tert-Butyl-4-chloro-2-methyl-2H-pyrazol-3-yl)-5-(2-fluoro-6-trifluoromethoxy-phenyl)-1H-benzimidazole hydrochloride], the IC50 was 3.6 nM and 9.7 nM.

With `Cn1nc(C(C)(C)C)c(C(F)(F)F)c1-c1nc2cc(-c3ccccc3Cl)cc(C(F)(F)F)c2[nH]1` [Compound 186, 2-(5-tert-Butyl-2-methyl-4-trifluoromethyl-2H-pyrazol-3-yl)-5-(2-chloro-phenyl)-7-trifluoromethyl-1H-benzimidazole sodium salt], the IC50 was 20 nM. The inhibition at 0.2 µM under setting [1] came to 99%.

The values above are taken from US20120202856A1, “SUBSTITUTED BENZIMDAZOLE DERIVATIVES USEFUL AS TRPM8 RECEPTOR MODULATORS” (priority 2011, published 2012).
